Reference: ChEMBL document CHEMBL5465560, “Selectivity Literature for EUbOPEN Chemogenomic Library” (2024)

Key:
[1] = target: Cyclin-dependent kinase 4 (Homo sapiens, UniProt P11802); assay: Selectivity interaction (KinomeScan (DiscoverX)) EUB0000229b CDK4; conditions: at 10 µM
[2] = tested on: Receptor-type tyrosine-protein kinase FLT3 (Homo sapiens), P36888 [UNDEFINED MUTATION]; assay: Selectivity interaction (KinomeScan (DiscoverX)) EUB0000229b FLT3; conditions: at 1 µM
[3] = target: T1, Cyclin-G-associated kinase (Homo sapiens) (UniProt O14976); assay: Selectivity interaction (Kinase panel (DSF assay)) EUB0001559a GAK
T1 sequence (whole entry): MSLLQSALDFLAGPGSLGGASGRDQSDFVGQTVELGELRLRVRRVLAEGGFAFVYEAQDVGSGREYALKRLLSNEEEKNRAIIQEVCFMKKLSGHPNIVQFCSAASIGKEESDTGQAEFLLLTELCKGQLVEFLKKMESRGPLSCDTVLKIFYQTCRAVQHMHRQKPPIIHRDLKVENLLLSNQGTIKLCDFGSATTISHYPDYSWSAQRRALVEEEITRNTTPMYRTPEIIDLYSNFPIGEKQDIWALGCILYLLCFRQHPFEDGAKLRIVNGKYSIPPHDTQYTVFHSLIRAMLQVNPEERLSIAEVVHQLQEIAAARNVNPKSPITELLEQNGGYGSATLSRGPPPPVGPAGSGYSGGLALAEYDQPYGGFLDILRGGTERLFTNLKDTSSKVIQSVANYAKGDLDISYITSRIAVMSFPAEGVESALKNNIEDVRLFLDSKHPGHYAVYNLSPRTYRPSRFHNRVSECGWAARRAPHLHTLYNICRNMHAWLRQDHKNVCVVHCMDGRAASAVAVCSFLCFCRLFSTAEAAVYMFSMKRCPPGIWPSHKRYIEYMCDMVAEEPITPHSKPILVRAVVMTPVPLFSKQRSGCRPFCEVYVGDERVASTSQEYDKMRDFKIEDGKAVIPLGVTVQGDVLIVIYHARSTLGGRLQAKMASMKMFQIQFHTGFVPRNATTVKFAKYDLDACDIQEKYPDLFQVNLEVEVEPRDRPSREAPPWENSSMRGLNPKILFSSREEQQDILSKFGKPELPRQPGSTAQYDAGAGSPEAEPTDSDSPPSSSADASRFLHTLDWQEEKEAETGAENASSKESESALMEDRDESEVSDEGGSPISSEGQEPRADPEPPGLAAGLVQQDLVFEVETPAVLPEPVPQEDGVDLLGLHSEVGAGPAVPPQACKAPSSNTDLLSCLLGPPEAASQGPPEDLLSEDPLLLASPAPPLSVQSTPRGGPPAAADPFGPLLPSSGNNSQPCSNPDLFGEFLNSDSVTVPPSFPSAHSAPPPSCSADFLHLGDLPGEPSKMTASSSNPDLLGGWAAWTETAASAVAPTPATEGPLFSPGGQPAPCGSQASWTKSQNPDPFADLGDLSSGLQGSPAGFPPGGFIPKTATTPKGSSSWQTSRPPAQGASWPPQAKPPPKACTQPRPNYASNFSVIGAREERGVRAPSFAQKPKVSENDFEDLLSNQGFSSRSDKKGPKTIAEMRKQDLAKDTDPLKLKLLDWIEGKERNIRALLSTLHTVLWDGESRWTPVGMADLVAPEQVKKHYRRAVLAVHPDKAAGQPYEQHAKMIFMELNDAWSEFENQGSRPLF

[4] = target: Histone-lysine N-methyltransferase SETD2 (Homo sapiens) (UniProt Q9BYW2); assay: Selectivity interaction (Methyltransferase screen (radiometric assays, panel of 8 PRMTs, 21 protein lysine methyltransferases, 3 DNA methyltransferases, and one RNA methyltransferase)) EUB0000272b SETD2
Chain of Histone-lysine N-methyltransferase SETD2 (Homo sapiens) (Q9BYW2 whole entry): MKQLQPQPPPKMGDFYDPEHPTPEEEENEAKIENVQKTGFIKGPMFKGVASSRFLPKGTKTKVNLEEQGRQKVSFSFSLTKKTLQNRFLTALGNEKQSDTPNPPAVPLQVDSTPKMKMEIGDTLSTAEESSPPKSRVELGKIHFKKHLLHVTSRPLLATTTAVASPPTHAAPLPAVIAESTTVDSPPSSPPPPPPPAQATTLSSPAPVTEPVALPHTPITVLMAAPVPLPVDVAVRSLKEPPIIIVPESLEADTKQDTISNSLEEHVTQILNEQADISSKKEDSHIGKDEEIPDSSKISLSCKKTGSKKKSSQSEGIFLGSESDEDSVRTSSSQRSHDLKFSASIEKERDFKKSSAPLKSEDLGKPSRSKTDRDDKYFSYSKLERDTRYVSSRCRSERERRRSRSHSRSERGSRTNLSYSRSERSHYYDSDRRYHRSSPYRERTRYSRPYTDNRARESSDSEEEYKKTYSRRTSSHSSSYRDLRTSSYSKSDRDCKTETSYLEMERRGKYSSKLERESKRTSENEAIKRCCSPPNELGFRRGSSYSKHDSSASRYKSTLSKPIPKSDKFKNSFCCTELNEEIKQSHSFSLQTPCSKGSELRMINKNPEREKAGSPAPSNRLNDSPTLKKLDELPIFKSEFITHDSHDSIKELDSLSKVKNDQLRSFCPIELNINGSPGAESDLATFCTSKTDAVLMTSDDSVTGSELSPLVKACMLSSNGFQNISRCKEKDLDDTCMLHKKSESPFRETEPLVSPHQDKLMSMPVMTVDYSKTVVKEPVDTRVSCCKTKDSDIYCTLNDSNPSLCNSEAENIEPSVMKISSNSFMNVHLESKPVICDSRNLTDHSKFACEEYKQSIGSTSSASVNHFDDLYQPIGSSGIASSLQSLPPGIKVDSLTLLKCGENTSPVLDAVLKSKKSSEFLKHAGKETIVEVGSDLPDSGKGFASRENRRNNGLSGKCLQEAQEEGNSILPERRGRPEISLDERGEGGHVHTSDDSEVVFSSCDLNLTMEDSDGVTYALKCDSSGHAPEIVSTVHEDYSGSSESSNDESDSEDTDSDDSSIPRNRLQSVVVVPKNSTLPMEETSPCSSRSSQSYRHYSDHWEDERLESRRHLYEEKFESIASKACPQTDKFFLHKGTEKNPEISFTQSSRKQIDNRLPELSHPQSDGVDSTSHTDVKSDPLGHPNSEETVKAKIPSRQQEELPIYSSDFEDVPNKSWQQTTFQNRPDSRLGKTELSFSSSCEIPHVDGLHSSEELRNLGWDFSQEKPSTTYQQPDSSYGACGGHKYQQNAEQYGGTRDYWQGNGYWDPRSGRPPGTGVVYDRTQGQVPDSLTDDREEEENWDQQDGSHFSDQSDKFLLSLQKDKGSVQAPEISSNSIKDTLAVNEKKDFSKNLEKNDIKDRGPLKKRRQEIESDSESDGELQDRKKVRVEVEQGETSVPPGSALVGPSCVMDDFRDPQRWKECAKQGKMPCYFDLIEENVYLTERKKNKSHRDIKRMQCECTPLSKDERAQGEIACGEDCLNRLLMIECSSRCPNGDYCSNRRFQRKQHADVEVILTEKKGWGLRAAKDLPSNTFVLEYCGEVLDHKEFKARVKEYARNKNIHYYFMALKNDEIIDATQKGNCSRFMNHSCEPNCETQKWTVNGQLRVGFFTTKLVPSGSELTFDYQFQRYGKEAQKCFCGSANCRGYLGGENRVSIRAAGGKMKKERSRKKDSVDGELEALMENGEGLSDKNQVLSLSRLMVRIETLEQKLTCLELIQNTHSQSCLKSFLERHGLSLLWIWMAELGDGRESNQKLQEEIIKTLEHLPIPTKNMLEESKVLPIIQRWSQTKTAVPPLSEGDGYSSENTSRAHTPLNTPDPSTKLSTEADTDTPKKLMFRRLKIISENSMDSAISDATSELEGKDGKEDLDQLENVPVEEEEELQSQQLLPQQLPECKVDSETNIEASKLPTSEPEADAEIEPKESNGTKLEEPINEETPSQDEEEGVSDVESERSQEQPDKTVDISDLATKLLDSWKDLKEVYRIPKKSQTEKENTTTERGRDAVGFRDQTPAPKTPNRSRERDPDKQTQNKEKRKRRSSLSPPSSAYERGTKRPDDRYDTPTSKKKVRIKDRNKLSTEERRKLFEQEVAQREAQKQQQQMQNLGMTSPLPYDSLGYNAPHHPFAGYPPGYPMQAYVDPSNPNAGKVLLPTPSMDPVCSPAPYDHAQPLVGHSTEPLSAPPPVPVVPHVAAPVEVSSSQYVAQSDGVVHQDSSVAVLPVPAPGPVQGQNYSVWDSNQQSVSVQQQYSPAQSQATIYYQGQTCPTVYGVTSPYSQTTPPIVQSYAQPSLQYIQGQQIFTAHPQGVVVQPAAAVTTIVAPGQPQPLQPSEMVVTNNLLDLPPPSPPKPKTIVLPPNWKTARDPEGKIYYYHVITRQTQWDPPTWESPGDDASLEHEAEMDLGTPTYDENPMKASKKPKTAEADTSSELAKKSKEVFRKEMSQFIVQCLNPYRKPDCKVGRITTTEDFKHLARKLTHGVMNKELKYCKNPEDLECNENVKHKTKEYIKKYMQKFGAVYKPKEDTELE

[5] = target: T2, Ephrin type-A receptor 8 (Homo sapiens) (UniProt P29322); assay: Selectivity interaction (KinomeScan (DiscoverX)) EUB0000666a EPHA8; conditions: at 10 µM
T2 sequence (whole entry): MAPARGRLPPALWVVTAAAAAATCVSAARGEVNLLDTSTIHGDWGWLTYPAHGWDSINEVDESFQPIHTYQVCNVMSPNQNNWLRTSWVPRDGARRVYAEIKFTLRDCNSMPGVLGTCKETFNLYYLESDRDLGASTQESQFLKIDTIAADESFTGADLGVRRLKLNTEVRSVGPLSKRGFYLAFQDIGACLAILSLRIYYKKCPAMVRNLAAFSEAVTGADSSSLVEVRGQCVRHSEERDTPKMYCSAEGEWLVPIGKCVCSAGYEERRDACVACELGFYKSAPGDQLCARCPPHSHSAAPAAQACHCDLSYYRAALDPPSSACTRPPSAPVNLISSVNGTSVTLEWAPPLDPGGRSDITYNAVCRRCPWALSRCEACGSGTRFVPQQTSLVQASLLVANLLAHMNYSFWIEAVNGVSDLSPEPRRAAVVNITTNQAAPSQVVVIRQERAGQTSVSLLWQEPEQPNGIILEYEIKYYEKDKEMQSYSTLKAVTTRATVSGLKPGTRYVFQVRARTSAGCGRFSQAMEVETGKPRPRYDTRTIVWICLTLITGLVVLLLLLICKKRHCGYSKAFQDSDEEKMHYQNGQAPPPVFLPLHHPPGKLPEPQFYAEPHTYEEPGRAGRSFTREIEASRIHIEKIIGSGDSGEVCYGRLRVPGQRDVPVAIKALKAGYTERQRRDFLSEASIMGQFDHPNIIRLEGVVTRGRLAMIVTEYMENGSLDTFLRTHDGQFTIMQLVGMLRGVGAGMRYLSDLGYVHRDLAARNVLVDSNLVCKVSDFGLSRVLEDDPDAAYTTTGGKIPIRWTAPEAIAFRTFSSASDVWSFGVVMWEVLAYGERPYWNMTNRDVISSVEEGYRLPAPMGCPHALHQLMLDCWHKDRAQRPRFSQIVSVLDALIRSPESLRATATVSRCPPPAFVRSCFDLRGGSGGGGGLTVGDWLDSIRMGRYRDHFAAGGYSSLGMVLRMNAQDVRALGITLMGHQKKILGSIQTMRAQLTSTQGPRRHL

[6] = target: Aurora kinase B (Homo sapiens, UniProt Q96GD4); assay: Selectivity interaction (KinomeScan (DiscoverX)) EUB0000618a AURKB; conditions: at 10 µM
Chain of Aurora kinase B (Q96GD4 whole entry): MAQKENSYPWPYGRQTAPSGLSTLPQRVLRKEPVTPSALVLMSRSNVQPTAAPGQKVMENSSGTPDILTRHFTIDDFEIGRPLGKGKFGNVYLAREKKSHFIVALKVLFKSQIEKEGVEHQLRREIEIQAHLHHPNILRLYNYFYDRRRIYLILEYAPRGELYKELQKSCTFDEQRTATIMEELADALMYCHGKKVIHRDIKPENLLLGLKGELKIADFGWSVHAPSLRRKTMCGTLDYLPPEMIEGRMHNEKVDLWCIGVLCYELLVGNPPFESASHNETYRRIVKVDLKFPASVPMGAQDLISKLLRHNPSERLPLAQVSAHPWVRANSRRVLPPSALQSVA

[7] = target: Serine/threonine-protein kinase Nek6 (Homo sapiens) (UniProt Q9HC98); assay: Selectivity interaction (ActivX KiNativ screen (kinase selectivity in THP-1 cell lysates)) EUB0000639a NEK6; assay type: subcellular; conditions: lysate
Chain of Serine/threonine-protein kinase Nek6 (Homo sapiens) (Q9HC98 whole entry): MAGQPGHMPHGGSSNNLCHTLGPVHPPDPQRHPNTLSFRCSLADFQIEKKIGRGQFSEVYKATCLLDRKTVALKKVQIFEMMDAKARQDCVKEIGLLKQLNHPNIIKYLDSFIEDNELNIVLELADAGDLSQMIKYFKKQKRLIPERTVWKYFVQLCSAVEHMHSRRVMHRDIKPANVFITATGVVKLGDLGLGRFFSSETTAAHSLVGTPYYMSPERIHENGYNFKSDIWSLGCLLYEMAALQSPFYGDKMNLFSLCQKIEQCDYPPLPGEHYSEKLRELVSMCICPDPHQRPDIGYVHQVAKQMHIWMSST

[8] = target: Rho-associated protein kinase 1 (Homo sapiens) (UniProt Q13464); assay: Selectivity interaction (KinomeScan (DiscoverX)) EUB0000655a ROCK1; conditions: at 10 µM
[9] = target: LIM domain kinase 2 (Homo sapiens) (UniProt P53671); assay: Selectivity interaction (Ambit KINOMEscan and KiNATiv profiling in Jurkat cells) EUB0000090b LIMK2; assay type: cell-based; conditions: at 1 µM

Chain of Receptor-type tyrosine-protein kinase FLT3 (Homo sapiens), P36888 [UNDEFINED MUTATION] (P36888 whole entry, looked up, change not shown): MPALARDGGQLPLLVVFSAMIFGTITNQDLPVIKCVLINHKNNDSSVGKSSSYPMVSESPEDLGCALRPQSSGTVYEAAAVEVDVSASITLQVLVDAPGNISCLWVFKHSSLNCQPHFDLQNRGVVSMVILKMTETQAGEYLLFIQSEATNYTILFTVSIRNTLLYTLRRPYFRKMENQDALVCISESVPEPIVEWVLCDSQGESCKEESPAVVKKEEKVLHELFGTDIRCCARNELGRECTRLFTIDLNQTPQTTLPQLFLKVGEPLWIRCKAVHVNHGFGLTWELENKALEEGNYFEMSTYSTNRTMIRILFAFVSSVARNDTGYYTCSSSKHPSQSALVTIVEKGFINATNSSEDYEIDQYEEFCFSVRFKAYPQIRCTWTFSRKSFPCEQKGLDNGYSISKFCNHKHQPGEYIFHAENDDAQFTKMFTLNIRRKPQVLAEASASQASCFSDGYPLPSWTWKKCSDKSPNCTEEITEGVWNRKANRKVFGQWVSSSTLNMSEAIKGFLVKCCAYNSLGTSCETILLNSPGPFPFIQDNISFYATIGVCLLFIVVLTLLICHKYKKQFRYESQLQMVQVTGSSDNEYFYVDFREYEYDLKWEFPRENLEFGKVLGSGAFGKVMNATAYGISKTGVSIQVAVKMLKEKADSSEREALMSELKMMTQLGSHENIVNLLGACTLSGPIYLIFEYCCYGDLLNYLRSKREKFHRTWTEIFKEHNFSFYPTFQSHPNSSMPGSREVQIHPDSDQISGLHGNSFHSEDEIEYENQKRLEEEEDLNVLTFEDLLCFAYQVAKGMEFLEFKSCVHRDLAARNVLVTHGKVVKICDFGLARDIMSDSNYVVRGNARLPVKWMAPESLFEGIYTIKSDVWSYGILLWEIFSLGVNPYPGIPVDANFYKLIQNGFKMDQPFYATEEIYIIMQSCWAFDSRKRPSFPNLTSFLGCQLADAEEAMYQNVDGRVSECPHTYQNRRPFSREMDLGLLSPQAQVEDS
Chain of Cyclin-dependent kinase 4 (P11802 whole entry): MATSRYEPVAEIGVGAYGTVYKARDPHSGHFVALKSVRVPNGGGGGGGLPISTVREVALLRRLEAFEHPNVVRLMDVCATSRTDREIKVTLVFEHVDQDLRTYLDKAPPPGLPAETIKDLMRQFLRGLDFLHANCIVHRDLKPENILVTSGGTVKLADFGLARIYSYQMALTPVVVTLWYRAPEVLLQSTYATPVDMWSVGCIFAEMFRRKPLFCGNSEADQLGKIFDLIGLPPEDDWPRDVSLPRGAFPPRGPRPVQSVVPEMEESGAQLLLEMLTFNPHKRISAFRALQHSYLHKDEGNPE

Molecule `COc1cc(N(C)c2ccnc3ccc(C(F)(F)F)cc23)cc(OC)c1OC` has a % binding [1] of 100% and a % binding [2] of 100%.
In the case of `CN(C(=O)c1cnn2cccnc12)c1cc2c(cc1N1CCOCC1)C(=O)N(C[C@@H](F)C(C)(C)O)C2`, the dTM [3] was 0.1 K.
`Cc1cc(C)cc([C@H]2c3cc(C)ccc3NC(=O)CN2C(=O)c2ccc(Br)s2)c1` was tested, and the % of activity ([4]; at 1 µM) was 98% and the % of activity ([4]; at 10 µM) was 98.3%.
`O=C(NOC[C@H](O)CO)c1ccc(F)c(F)c1Nc1ccc(I)cc1F` showed a % of control [5] of 94%.
`O[C@H]1CC[C@H](Nc2ncc3nc(Nc4c(F)cc(F)cc4F)n([C@H]4CCOC4)c3n2)CC1` was tested, and the % of control [6] was 100%.
In the case of `CC[C@@H]1[C@H](F)C(=O)N[C@@H]1COc1nccc2cc(C(N)=O)c(OC)cc12` [ZIMLOVISERTIB], the % of inhibition ([7]; at 0.01 µM) was -2.2%, the % of inhibition ([7]; at 0.04 µM) was 1.5% and the % of inhibition ([7]; at 0.2 µM) was -2.2%. For the same molecule, the % of inhibition ([7]; at 1 µM) was 2% and the % of inhibition ([7]; at 5 µM) was -1.4%.
With `CN(C)CCOc1ccc(-c2nc(-c3ccncc3)c(-c3ccc4c(c3)CC/C4=N\O)[nH]2)cc1` the % of control [8] was 77%.
With `CN(C)C/C=C/C(=O)Nc1ccc(C(=O)N2CCCC(Nc3ncc(Cl)c(-c4c[nH]c5ccccc45)n3)C2)cc1` (centres undefined) the % of control [9] was 95%.
